Experimental data taken from paper PMC10203128, “Structures of human SGLT in the occluded state reveal conformational changes during sugar transport” (Nature Communications, 2023).

Tests used:
hSGLT1 = target: T1, hSGLT1 (Homo sapiens, UniProt P13866); test: cryo-EM structure of the complex at […] Å; IC50 from inhibition of […]-NBD-glucose uptake in cells; assay type: cell-based
T1 construct: gene SLC5A1; hSGLT1GFP-MAP17nb (three-joint-tethering construct), in lipid nanodisc; with MAP17
T1 sequence (P13866 1-664): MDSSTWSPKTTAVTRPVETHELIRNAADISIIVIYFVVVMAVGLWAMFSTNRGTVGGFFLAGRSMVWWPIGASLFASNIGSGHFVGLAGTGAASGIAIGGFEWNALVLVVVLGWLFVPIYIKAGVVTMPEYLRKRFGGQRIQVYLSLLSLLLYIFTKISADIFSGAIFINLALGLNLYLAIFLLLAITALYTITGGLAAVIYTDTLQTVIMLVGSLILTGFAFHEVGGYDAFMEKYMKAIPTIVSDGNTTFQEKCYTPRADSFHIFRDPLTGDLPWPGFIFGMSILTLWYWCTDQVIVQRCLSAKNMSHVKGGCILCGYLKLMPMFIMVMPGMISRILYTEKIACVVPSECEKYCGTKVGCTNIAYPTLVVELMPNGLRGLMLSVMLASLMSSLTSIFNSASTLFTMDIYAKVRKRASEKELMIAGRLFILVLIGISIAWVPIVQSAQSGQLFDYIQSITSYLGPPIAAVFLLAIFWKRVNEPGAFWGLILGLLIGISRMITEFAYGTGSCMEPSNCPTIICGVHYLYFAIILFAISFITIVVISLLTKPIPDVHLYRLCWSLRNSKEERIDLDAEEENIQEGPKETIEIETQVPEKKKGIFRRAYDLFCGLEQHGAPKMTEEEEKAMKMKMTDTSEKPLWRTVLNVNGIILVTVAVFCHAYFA
T1 sequence (Q13113 1-114 partner): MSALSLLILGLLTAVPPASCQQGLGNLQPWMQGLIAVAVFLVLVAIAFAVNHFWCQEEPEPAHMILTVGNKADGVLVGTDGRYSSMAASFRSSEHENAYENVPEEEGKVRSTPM

hSGLT2 = target: T2, hSGLT2 (Homo sapiens, UniProt P31639); test: cryo-EM structure of the complex at […] Å ([…] AMG); assay type: binding
T2 construct: gene SLC5A2; hSGLT2GFP-MAP17nb, in lipid nanodisc; with MAP17
T2 sequence (P31639 1-672): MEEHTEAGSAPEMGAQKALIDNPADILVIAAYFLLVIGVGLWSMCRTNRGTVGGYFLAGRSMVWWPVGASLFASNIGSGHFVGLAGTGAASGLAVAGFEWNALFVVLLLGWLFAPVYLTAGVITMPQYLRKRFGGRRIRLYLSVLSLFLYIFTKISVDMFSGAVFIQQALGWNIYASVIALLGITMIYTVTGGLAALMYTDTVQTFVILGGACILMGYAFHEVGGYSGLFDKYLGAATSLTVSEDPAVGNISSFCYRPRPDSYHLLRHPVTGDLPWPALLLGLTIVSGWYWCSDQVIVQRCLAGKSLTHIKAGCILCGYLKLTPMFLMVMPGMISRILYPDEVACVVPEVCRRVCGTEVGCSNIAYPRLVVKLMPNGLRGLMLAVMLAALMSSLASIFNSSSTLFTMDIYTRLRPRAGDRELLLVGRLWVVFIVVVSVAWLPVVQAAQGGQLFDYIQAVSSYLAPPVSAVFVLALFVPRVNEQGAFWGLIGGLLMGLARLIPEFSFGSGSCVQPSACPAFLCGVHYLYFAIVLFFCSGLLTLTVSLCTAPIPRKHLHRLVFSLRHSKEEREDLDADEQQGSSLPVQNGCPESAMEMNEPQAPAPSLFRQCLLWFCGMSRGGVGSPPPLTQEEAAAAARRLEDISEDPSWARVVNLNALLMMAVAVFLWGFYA
T2 sequence (Q13113 1-114 partner): T1 sequence (Q13113 1-114 partner)

IC50 (hSGLT1) | Compound | cryo-EM structure of the complex at 3.33 Å (100 mM AMG) (hSGLT2)
~70 µM | OC[C@H]1OC(O)[C@H](O)[C@@H](O)[C@@H]1F (stereo partly drawn) [4D4FDG, 4-deoxy-4-fluoro-D-glucose] | –
– | CO[C@H]1O[C@H](CO)C(O)[C@H](O)[C@H]1O (stereo in doubt) [AMG, methyl alpha-D-galactopyranoside] | We observed that AMG is bound in an occluded substrate-binding site
